# Test results: patent US6488912B1, “Treatment of dentoalveolar infections with taurolidine and/or taurultam” (Ed. Geistlich Soehne AG fuer Chemische Industrie, priority 1992, dated 2002)
# Experiments:
# [1] = system: human desmodontal fibroblasts; settings: cited from earlier work
# [2] = system: Alveolitis sicca dolorose; assay: Controlled clinical trial, total treatment time to complete remission: alveolitis; assay type: in vivo, patients; settings: TAUR: T-Irrigation fluid 3% + T-Dental emulsion 3%, STANDARD: NaCl 0.9% + AUREOMYCIN Ointment 3%, n=100 per group
# Description: (§1) The in-vivo tests were carried out at the Clinic for Maxillofacial Surgery, Munich University between 1989 and 1992. In accordance with modern biometric principles the study was planned as a controlled clinical trial, i.e. it was conducted according to a prospective, protective, randomized, monocentre and simple blind design.
# (§2) The test substances investigated were 4 different galenic presentation forms of the active component taurolidine and 4 conventional finished pharmaceuticals.
# (§3) For each of the 6 indications investigated an exact therapeutic procedure was fixed. The surgical management was carried out according to the individual situation in the usual manner. Tables 1 and 2 show the antimicrobial therapy regimens defined for patient groups A (Taurolidine group) and B (Standard group). It is evident, that the only difference, with the same quantity of substance applied in the same form, was the choice of preparation.
# (§4) For critical examination of the effectiveness of the different pharmaceuticals concerning therapeutic success and total treatment time clinical parameters reflecting the progress of recovery were controlled and documented at every session. The following 6 target variables were defined and evaluated by a uniform scale (0=none to 4=very strong):
# (§5) The score-level 5 (total) was given at the moment of complete remission and describes consequently the final point of treatment.
# (§6) 200 cases were treated in each indication group, the total number amounted to 1,200. The distribution into the two therapy regimens was realised by random sampling. Statistical evaluations were made by means of testing methods described in customary literature.
# [3] = system: Pericoronitis; assay: Controlled clinical trial, total treatment time to complete remission: pericoronitis; assay type: in vivo, patients; settings: TAUR: T-Irrigation fluid 3% + T-Dental emulsion 3%, STANDARD: NaCl 0.9% + AUREOMYCIN Ointment 3%, n=100 per group
# Description: as §1, §2, §3, §4, §5, §6
# [4] = system: Infection Prophylaxis; assay: Controlled clinical trial, total treatment time to complete remission: infection prophylaxis; assay type: in vivo, patients; settings: TAUR: T-Dental gel 2%, STANDARD: CHLORHEXAMED Dental gel 1%, n=100 per group
# Description: as §1, §2, §3, §4, §5, §6
# [5] = system: Abscess; assay: Controlled clinical trial, total treatment time to complete remission: abscess; assay type: in vivo, patients; settings: TAUR: T-Irrigation fluid 3% + T-Dental emulsion 3%, STANDARD: NaCl 0.9% + AUREOMYCIN Ointment 3%, n=100 per group
# Description: as §1, §2, §3, §4, §5, §6
# [6] = system: dentoalveolar infections; assay: Controlled clinical trial, taurolidine vs conventional therapy, all 6 indications pooled: target variables; assay type: in vivo, patients
# Description: as §1
# The following 6 indications examined were selected specifically on the basis of their incidence and clinical relevance.
# as §2, §3, §4, §5, §6
# [7] = system: Parodontitis marginalis; assay: Controlled clinical trial, total treatment time to complete remission: parodontitis; assay type: in vivo, patients; settings: TAUR: T-Liquid gel 3% + T-Dental emulsion 3%, STANDARD: DONTISOLON Ointment M, n=100 per group
# Description: as §1, §2, §3, §4, §5, §6
# [8] = system: Gangrene; assay: Controlled clinical trial, total treatment time to complete remission: gangrene; assay type: in vivo, patients; settings: TAUR: T-Irrigation fluid 3% + T-Liquid gel 3%, STANDARD: H2O2 3% + CHKM Solution, n=100 per group
# Description: as §1, §2, §3, §4, §5, §6
# [9] = background statement; cited from earlier work
# [10] = all 6 indications, n=600 per group, maximum
# [11] = all 6 indications, n=600 per group, mean
# [12] = all 6 indications, n=600 per group, minimum
molecule,measurement,setting,value
[H]/N=C(\N/C(=N/[H])NCCCCCCNC(=N)NC(=N)Nc1ccc(Cl)cc1)Nc1ccc(Cl)cc1 [Chlorhexidine],cell damage,[1],accelerated ageing and a cytopathological effect
"O=S1(=O)CCN(CN2CCS(=O)(=O)NC2)CN1 [TAUR, taurolidine]","ALVEOLITIS, total treatment TIME (remission), Maximum",[2]; maximum,15 days
same,"ALVEOLITIS, total treatment TIME (remission), Mean",[2]; mean,5.6 days
same,"ALVEOLITIS, total treatment TIME (remission), Minimum",[2]; minimum,3 days
same,"PERICORONITIS, total treatment TIME (remission), Maximum",[3]; maximum,12 days
same,"PERICORONITIS, total treatment TIME (remission), Mean",[3]; mean,5.1 days
same,"PERICORONITIS, total treatment TIME (remission), Minimum",[3]; minimum,2 days
same,"INFECT. PROPHYLAXIS, total treatment TIME (remission), Maximum",[4]; maximum,13 days
same,"INFECT. PROPHYLAXIS, total treatment TIME (remission), Mean",[4]; mean,7.5 days
same,"INFECT. PROPHYLAXIS, total treatment TIME (remission), Minimum",[4]; minimum,3 days
same,"ABSCESS, total treatment TIME (remission), Maximum",[5]; maximum,13 days
same,"ABSCESS, total treatment TIME (remission), Mean",[5]; mean,5.5 days
same,"ABSCESS, total treatment TIME (remission), Minimum",[5]; minimum,2 days
same,"PAIN TIME, Maximum",[6]; [10],14 days
same,"PERCUSSION TIME, Maximum",[6]; [10],13 days
same,"PRESSURE PAIN TIME, Maximum",[6]; [10],15 days
same,"SECRETION TIME, Maximum",[6]; [10],15 days
same,"SWELLING TIME, Maximum",[6]; [10],14 days
same,"PERCUSSION TIME, Mean",[6]; [11],1.9 days
same,"PRESSURE PAIN TIME, Mean",[6]; [11],5.3 days
same,"SECRETION TIME, Mean",[6]; [11],3.9 days
same,"SWELLING TIME, Mean",[6]; [11],4.5 days
same,"PAIN TIME, Minimum",[6]; [12],1 days
same,"PERCUSSION TIME, Minimum",[6]; [12],1 days
same,"PRESSURE PAIN TIME, Minimum",[6]; [12],1 days
same,"SECRETION TIME, Minimum",[6]; [12],1 days
same,"SWELLING TIME, Minimum",[6]; [12],1 days
same,effectiveness against standard therapy (more rapid recovery),"[6]; all 6 indications, p<0.0001",superior effectiveness
same,side effects after application,[6]; during the acute period of inflammation,slight pain for some minutes after application
same,optional antibiotics and analgetics required/administered,"[6]; taurolidine group vs standard group, p=0.007 resp. p=0.01",significantly less
same,pain-free earlier than under conventional treatment (average),[6]; taurolidine vs conventional treatment,2 days
same,"PARODONTITIS, total treatment TIME (remission), Maximum",[7]; maximum,14 days
same,"PARODONTITIS, total treatment TIME (remission), Mean",[7]; mean,5.1 days
same,"PARODONTITIS, total treatment TIME (remission), Minimum",[7]; minimum,2 days
same,"GANGRENE, total treatment TIME (remission), Maximum",[8]; maximum,10 days
same,"GANGRENE, total treatment TIME (remission), Mean",[8]; mean,5.0 days
same,"GANGRENE, total treatment TIME (remission), Minimum",[8]; minimum,2 days
Neomycin,allergy rate,[9],15-30%
